Experimental data taken from the Kinase Knowledgebase extract (Sharma et al. 2016).
pEC50, pIC50, pKi: −log10 of the molar value.

Assays:
CDK2 [1] = molecular target: CDK2 (UniProt P24941); experiment: Enzyme Assay
EGFR [2] = molecular target: EGFR (UniProt P00533)
EGFR (human) [3] = molecular target: EGFR (human) (UniProt P00533); details: kb
PIK3CA (human) [4] = molecular target: PIK3CA (human) (UniProt P42336); experiment: Inhibition of PIK3CA Kinase Activity in HeLa Cells
EGFR (human) [5] = molecular target: EGFR (human) (UniProt P00533); details: A431
MAPK14 [6] = molecular target: MAPK14 (UniProt Q16539); experiment: Inhibition of MAPK14 Kinase Activity; details: for inhibition: concentration not given here
MAPK14, sequence (Q16539 whole entry, looked up): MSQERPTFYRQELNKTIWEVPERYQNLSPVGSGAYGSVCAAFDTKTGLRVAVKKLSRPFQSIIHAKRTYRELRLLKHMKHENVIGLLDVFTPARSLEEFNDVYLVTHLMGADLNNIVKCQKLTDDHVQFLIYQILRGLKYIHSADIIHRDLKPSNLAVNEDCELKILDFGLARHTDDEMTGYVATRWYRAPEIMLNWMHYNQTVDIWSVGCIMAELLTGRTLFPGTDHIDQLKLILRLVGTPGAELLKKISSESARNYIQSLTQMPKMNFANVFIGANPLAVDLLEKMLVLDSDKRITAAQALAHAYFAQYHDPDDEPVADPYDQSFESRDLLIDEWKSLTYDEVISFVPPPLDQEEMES

ROCK2 = ROCK2 (UniProt O75116); experiment: Inhibition of ROCK-II Kinase Activity; details: concentration not given here
MAPK14 (human) [7] = molecular target: MAPK14 (human) (UniProt Q16539); experiment: Inhibition of MAPK14 Kinase Activity
MAPK14 (human), sequence (Q16539 whole entry, looked up): as above

MAPK14 (human) [8] = molecular target: MAPK14 (human) (UniProt Q16539); experiment: Inhibition of MAPK14 Kinase Activity; remark: listed apart in the source
MAPK14 [9] = molecular target: MAPK14 (UniProt Q16539); experiment: Inhibition of TNF-alpha Production
EGFR [10] = molecular target: EGFR (UniProt P00533); remark: listed apart in the source
CDK2 [11] = molecular target: CDK2 (UniProt P24941); experiment: Enzyme Assay; remark: listed apart in the source
ROCK2 (rat) = ROCK2 (rat) (UniProt Q62868); experiment: ROCK-II Kinase Inhibition; details: concentration not given here
MAPK14 (human) [12] = molecular target: MAPK14 (human) (UniProt Q16539); experiment: p38-alpha Kinase Inhibition
EGFR (human) [13] = molecular target: EGFR (human) (UniProt P00533); details: a431
EGFR (human) [14] = molecular target: EGFR (human) (UniProt P00533); details: a431; remark: listed apart in the source
MAPK14 [15] = molecular target: MAPK14 (UniProt Q16539); experiment: Inhibition of MAPK14 Kinase Activity (Spectrophometric Assay); details: concentration not given here
MAPK14 [16] = molecular target: MAPK14 (UniProt Q16539); experiment: Inhibition of MAPK14 Kinase Activity (Binding Assay)
EGFR (human) [17] = molecular target: EGFR (human) (UniProt P00533); details: a431; remark: listed apart in the source
EGFR (human) [18] = molecular target: EGFR (human) (UniProt P00533)
EGFR (human) [19] = molecular target: EGFR (human) (UniProt P00533); remark: listed apart in the source
EGFR [20] = molecular target: EGFR (UniProt P00533); details: concentration not given here
EGFR (human) [21] = molecular target: EGFR (human) (UniProt P00533); details: hn5
EGFR (human) [22] = molecular target: EGFR (human) (UniProt P00533); remark: listed apart in the source
PIK3CA (human) [23] = molecular target: PIK3CA (human) (UniProt P42336); experiment: Inhibition of PIK3CA Kinase Activity (FP Assay)
MAPK14 [24] = molecular target: MAPK14 (UniProt Q16539); experiment: CSBP binding - Inhibition of Prostaglandin H Synthase Type-1 Enzyme Assay
MAPK14 [25] = molecular target: MAPK14 (UniProt Q16539); experiment: CSBP binding - Inhibition of RBL-1 5 Lipoxygenase Enzyme Assay
EGFR (human) [26] = molecular target: EGFR (human) (UniProt P00533); remark: listed apart in the source
EGFR (human) [27] = molecular target: EGFR (human) (UniProt P00533); details: hn5; remark: listed apart in the source
CDK2 (human) = CDK2 (human) (UniProt P24941)
EGFR [28] = molecular target: EGFR (UniProt P00533); remark: listed apart in the source
EGFR (human) [29] = molecular target: EGFR (human) (UniProt P00533); details: hn5; remark: listed apart in the source
EGFR (human) [30] = molecular target: EGFR (human) (UniProt P00533); details: hn5; remark: listed apart in the source
CDK2 [31] = molecular target: CDK2 (UniProt P24941); experiment: Enzyme Assay; remark: listed apart in the source

EGFR (human), sequence (P00533 whole entry, looked up): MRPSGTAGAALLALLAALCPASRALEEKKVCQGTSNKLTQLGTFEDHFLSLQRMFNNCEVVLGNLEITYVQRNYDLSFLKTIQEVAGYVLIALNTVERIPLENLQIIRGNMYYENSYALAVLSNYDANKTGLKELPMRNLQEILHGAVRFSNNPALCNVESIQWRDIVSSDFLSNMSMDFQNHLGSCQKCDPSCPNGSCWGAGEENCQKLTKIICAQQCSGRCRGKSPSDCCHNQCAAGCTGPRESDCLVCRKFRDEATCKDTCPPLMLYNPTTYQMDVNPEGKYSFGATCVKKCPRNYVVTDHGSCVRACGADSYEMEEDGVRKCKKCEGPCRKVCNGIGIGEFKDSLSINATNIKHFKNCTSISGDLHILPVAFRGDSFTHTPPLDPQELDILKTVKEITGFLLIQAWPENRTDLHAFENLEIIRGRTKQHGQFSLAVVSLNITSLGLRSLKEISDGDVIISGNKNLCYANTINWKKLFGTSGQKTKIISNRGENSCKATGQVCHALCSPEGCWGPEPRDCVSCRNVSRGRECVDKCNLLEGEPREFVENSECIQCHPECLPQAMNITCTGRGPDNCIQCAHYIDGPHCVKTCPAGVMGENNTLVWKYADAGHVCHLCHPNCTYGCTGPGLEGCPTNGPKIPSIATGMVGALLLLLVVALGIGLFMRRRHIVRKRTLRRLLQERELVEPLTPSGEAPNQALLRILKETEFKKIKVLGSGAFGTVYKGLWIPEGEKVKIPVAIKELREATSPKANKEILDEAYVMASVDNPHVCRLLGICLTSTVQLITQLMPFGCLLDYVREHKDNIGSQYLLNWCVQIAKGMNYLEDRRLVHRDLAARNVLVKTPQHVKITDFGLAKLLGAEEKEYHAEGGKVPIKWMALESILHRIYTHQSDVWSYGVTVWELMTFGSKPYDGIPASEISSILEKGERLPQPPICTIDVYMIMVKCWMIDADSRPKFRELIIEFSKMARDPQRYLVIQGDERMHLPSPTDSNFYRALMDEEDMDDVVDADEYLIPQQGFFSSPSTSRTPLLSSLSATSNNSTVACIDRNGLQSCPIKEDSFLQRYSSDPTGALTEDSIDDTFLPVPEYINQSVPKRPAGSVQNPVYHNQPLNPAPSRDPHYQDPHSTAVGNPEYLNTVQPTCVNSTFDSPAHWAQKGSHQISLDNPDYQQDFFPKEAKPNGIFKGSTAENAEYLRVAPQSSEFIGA
EGFR, sequence (P00533 whole entry, looked up): as above
PIK3CA (human), sequence (P42336 whole entry, looked up): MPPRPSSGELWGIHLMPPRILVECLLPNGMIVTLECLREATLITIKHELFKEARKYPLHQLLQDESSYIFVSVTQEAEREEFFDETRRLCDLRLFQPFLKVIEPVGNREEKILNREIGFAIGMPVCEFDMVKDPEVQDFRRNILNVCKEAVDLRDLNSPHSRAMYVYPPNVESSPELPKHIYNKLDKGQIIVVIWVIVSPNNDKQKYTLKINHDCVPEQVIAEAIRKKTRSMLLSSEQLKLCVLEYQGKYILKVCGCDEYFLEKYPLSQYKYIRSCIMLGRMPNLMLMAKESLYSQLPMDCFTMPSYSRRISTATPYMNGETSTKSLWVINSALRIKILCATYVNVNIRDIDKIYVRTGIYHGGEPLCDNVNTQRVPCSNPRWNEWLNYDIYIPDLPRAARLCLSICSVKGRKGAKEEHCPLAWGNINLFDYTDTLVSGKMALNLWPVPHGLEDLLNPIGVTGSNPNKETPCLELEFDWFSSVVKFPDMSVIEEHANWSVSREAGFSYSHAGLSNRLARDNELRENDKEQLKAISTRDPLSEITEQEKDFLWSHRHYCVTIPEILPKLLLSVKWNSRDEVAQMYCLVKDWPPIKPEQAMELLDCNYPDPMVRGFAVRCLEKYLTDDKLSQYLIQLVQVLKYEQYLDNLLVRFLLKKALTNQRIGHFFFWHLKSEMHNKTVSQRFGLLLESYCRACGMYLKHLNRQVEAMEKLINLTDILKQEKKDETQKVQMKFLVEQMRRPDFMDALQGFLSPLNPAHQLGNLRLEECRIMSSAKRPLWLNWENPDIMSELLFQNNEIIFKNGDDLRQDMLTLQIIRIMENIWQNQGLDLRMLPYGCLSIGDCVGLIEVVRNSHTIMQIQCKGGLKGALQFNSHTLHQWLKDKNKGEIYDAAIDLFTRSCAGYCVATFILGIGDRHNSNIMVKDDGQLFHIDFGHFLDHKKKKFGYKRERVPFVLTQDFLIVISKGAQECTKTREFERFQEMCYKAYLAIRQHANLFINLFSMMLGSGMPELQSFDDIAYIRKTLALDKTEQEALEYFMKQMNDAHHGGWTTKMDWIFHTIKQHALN

Structure (SMILES): CNC(=O)N1CCN(Cc2ccnc(Nc3ncc(C#N)s3)c2)CC1
- pIC50 (CDK2 [1]): 5.40
- pIC50 (EGFR [2]): < 4.72

Structure (SMILES): COc1cc2ncnc(Nc3cccc(Cl)c3F)c2cc1OC1CCN(CC(=O)NCCN2CCCC2)CC1
- pIC50 (EGFR (human) [3]): 7.77

Structure (SMILES): Nc1nc(N)c2c(n1)[nH]c1cccc(Sc3ccccc3)c12
- pEC50 (PIK3CA (human) [4]): 4.67
- pIC50 (EGFR (human) [5]): 4.31

Structure (SMILES): Brc1c(Br)c(Br)c2[nH]nnc2c1Br
- inhibition (MAPK14 [6]): -7%
- inhibition (ROCK2): 9%

Structure (SMILES): CONC(=O)c1ccc(C)c(Nc2nc(NCC3CCCC(CN)C3)nc(NC3CCCCC3)n2)c1 (stereo unspecified)
- pIC50 (MAPK14 (human) [7]): 8.70
- pIC50 (MAPK14 (human) [8]): 8.70

Structure (SMILES): CN1CC2CCC1CC2Nc1cc(-c2ccccc2Cl)c2c(c1)N(c1c(Cl)cccc1Cl)C(=O)NC2 (stereo unspecified)
- pIC50 (MAPK14 [6]): 9.40
- pIC50 (MAPK14 [9]): 7.70

Structure (SMILES): CN1CCC(Oc2cccc3ncnc(Nc4ccc(OCc5ccccn5)c(Cl)c4)c23)CC1
- pIC50 (EGFR [10]): 6.96

Structure (SMILES): CC(=O)NCc1ccc(Nc2nccc(-c3sc(=O)n(C)c3C)n2)cc1
- pKi (CDK2 [1]): 7.47
- pKi (CDK2 [11]): 6.66

Structure (SMILES): NC(=O)c1ccc(-c2nc(-c3ccc4c(c3)OCCO4)c(-c3ccccn3)[nH]2)cc1
- activity (ROCK2 (rat)): 96%
- pIC50 (MAPK14 (human) [12]): 4.92
- activity (MAPK14 (human) [12]; concentration not given here): 56%

Structure (SMILES): C#Cc1cccc(Nc2c([N+](=O)[O-])cnc3cc(OCc4ccccc4)c(OC)cc23)c1
- pIC50 (EGFR (human) [13]): 6.31

Structure (SMILES): COc1ccc(-c2[nH]nc3c2C(=O)c2c(NC(=O)Nc4ccc(O)cc4)cccc2-3)cc1
- GI50 (EGFR (human) [14]): > 10000 nM

Structure (SMILES): CC12CC(C(=O)O)CC(C)(C1)C(=O)N(Cc1cccc(-n3nc(C(C)(C)C)cc3NC(=O)Nc3ccc(Cl)cc3)c1)C2=O (stereo unspecified)
- inhibition (MAPK14 [15]): 70%
- pIC50 (MAPK14 [16]): 5.00

Structure (SMILES): N#Cc1cnc2ccc(NCc3c[nH]cn3)cc2c1Nc1ccc(F)c(Cl)c1
- pIC50 (EGFR (human) [17]): 7.52

Structure (SMILES): N#Cc1cnc2cc3c(cc2c1Nc1ccc(F)c(Cl)c1)N(C(=O)/C=C/CCl)CCO3
- pIC50 (EGFR (human) [18]): 6.00

Structure (SMILES): Clc1cccc(Nc2cncc(-c3cncc(NCCCN4CCCCC4)c3)n2)c1
- pIC50 (EGFR (human) [19]): < 4.00

Structure (SMILES): COc1ccc(C#CC(C)(C)N)cc1-c1n[nH]c2nc(Nc3ccc(F)cc3F)ccc12
- inhibition (EGFR [20]): -43%

Structure (SMILES): CS(=O)(=O)CCNCc1nc(-c2ccc3ncnc(Nc4ccc(OCc5cccc(F)c5)c(Cl)c4)c3c2)cs1
- pIC50 (EGFR (human) [21]): 7.10
- pIC50 (EGFR (human) [22]): > 7.00

Structure (SMILES): COC[C@H]1OC(=O)/C(=C/N(CCN(C)C)C(C)(C)C)C2=C(O)C(=O)C3=C([C@H](OC(C)=O)C[C@@]4(C)C3CC[C@@H]4O)[C@]21C (stereo partly specified)
- pIC50 (PIK3CA (human) [23]): 8.02

Structure (SMILES): Clc1ccc(-c2ncn(CCCN3CCOCC3)c2-c2ccncc2)cc1Cl
- pIC50 (MAPK14 [24]): < 4.00
- pIC50 (MAPK14 [25]): < 4.00

Structure (SMILES): Cn1ccnc1S(=O)(=O)CCNCc1ccc(-c2ccc3ncnc(Nc4ccc(OCc5cccc(F)c5)c(Cl)c4)c3c2)o1
- pIC50 (EGFR (human) [26]): 7.77
- pIC50 (EGFR (human) [27]): 6.30

Structure (SMILES): O=C1Nc2ccc3ncsc3c2C1=NNc1ccc(S(=O)(=O)O)cc1
- pIC50 (CDK2 (human)): 6.27

Structure (SMILES): CCS(=O)(=O)c1ccc(OC)c(Nc2ncc(-c3cccc(-c4ccccc4F)c3)o2)c1
- pIC50 (MAPK14 [6]): < 5.00
- pIC50 (EGFR [28]): < 5.00

Structure (SMILES): CCS(=O)(=O)c1ccc(OC)c(Nc2ncc(-c3cccc(-c4ccccn4)c3)o2)c1
- pIC50 (CDK2 [1]): 5.77
- pIC50 (MAPK14 [6]): < 5.00
- pIC50 (EGFR [28]): < 5.00

Structure (SMILES): Fc1ccc(-c2nc[nH]c2-c2ccncc2)cc1
- pIC50 (MAPK14 [24]): < 4.00
- pIC50 (MAPK14 [25]): < 4.00

Structure (SMILES): OCc1ccc(-c2cc3ncnc(Nc4ccc(OCc5cccc(F)c5)c(Cl)c4)c3s2)o1
- pIC50 (EGFR (human) [29]): 7.00

Structure (SMILES): CS(=O)(=O)CCNCCCCOc1ccc2ncnc(Nc3ccc(F)c(Cl)c3)c2c1
- pIC50 (EGFR (human) [30]): 7.15

Structure (SMILES): CN(C)c1nc2c(Br)c(Br)c(Br)c(Br)c2[nH]1
- inhibition (MAPK14 [6]): 15%
- inhibition (ROCK2): 31%

Structure (SMILES): COc1ccc2cnc(Nc3ccc(N4CCCCC4)cc3)nc2c1C(C)C
- pIC50 (CDK2 [1]): 5.39
- pIC50 (CDK2 [31]): 6.58
